Tests used:
[1] = molecular target: Epidermal growth factor receptor (Homo sapiens, UniProt P00533); assay: Biochemical Assays for Inhibition of Wild-Type and Mutant EGFRs
Protocol: (§1) Briefly, specific kinase/substrate pairs along with required cofactors were prepared in reaction buffer; 20 mM Hepes pH 7.5, 10 mM […], 1 mM EGTA, 0.02% Brij35, 0.02 mg/ml BSA, 0.1 mM Na3VO4, 2 mM DTT, 1% DMSO. Compounds were delivered into the reaction, followed […] later by addition of a mixture of ATP (Sigma, St. Louis MO) and 33P ATP (Perkin Elmer, Waltham MA) to a final concentration of 10 μM. Reactions were carried out at room temperature for 120 min, followed by spotting of the reactions onto P81 ion exchange filter paper (Whatman Inc., Piscataway, NJ). Unbound phosphate was removed by extensive washing of filters in 0.75% phosphoric acid. […] IC50 values and curve fits were obtained using Prism (GraphPad Software).

[2] = molecular target: Epidermal growth factor receptor [L858R] (Homo sapiens, UniProt P00533, L858R); assay: as above
Protocol: as §1

[3] = molecular target: Epidermal growth factor receptor [L858R,T790M,C797S] (Homo sapiens, UniProt P00533, C797S/L858R/T790M); assay: as above
Protocol: as §1

[4] = molecular target: Epidermal growth factor receptor [T790M,L858R] (Homo sapiens, UniProt P00533, L858R/T790M); assay: as above
Protocol: as §1

[5] = molecular target: Dual specificity protein kinase CLK3 (Homo sapiens, UniProt P49761); assay: Inhibition of CLK, CLK2, CLK3 and CLK4 Kinase Activity Evaluated at Nanosyn
Protocol: (§2) Table 3: Kinase protein and substrate were pre-diluted in the HEPES assay buffer (100 mM HEPES, pH 7.5, 0.01% Triton X-100, 0.1% BSA, 5 mM MgCl2, […] DTT, […], […] Beta-Glycerophosphate) dispensed into 384 well plate (5 μL per well). Control samples (0%-inhibition in the absence of inhibitor, DMSO only) and 100%-inhibition (in the absence of enzyme) were assembled in replicates of six and were used to calculate %-inhibition in the presence of compounds. Test compounds were added to the protein samples by acoustic dispensing (Labcyte Echo550). Concentration of DMSO was equalized to 1% in all samples. Reactions were initiated by addition of ATP by acoustic dispensing (Labcyte Echo550) and incubated according to assay specific incubation time. After incubation. 5 μL of Promega ADP-Glo reagent was added and incubated for 40 minutes. After 40 minutes, 10 uL of Promega kinase detection reagent was added. After 10 min of incubation with Kinase detection reagent, the luminescence was read on microplate reader (Biotek Synergy).

[6] = molecular target: Dual specificity protein kinase CLK4 (Homo sapiens, UniProt Q9HAZ1); assay: as above
Protocol: as §2

[7] = molecular target: Dual specificity protein kinase CLK1 (Homo sapiens, UniProt P49759); assay: as above
Protocol: as §2

[8] = molecular target: Dual specificity protein kinase CLK2 (Homo sapiens, UniProt P49760); assay: as above
Protocol: as §2

Sequence of Epidermal growth factor receptor [L858R,T790M,C797S] (P00533 25-1210 T790M/C797S/L858R limits assumed): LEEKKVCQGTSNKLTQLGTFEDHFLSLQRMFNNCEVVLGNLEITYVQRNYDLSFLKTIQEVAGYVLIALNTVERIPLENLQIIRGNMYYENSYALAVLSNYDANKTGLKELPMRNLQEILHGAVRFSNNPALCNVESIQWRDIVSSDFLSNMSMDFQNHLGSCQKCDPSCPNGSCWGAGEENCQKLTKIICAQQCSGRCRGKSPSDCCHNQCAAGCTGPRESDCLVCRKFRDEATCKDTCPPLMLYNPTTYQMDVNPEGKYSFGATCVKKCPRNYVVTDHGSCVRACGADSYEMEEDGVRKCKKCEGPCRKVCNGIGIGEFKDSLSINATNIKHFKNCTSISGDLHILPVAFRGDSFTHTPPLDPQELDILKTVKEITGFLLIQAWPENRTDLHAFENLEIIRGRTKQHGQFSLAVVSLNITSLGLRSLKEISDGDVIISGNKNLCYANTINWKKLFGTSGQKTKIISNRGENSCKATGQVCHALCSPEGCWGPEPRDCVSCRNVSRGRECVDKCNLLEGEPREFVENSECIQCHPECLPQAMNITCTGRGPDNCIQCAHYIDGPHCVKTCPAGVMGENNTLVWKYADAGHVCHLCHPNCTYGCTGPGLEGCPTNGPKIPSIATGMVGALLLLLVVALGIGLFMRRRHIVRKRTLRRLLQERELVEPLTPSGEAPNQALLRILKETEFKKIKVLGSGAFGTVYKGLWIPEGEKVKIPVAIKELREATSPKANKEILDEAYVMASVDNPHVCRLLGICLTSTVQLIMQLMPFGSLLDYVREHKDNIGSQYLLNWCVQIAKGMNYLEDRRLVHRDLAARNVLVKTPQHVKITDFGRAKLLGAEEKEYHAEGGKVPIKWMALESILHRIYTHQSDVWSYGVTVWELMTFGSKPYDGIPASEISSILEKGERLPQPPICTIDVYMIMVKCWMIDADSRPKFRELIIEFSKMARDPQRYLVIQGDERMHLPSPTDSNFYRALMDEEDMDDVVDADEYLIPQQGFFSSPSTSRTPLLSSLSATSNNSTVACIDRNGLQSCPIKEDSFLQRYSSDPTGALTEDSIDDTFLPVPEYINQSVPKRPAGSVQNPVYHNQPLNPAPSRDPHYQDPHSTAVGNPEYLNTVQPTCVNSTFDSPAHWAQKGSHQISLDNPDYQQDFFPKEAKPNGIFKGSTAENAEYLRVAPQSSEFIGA
Sequence of Epidermal growth factor receptor [T790M,L858R] (P00533 25-1210 T790M/L858R limits assumed): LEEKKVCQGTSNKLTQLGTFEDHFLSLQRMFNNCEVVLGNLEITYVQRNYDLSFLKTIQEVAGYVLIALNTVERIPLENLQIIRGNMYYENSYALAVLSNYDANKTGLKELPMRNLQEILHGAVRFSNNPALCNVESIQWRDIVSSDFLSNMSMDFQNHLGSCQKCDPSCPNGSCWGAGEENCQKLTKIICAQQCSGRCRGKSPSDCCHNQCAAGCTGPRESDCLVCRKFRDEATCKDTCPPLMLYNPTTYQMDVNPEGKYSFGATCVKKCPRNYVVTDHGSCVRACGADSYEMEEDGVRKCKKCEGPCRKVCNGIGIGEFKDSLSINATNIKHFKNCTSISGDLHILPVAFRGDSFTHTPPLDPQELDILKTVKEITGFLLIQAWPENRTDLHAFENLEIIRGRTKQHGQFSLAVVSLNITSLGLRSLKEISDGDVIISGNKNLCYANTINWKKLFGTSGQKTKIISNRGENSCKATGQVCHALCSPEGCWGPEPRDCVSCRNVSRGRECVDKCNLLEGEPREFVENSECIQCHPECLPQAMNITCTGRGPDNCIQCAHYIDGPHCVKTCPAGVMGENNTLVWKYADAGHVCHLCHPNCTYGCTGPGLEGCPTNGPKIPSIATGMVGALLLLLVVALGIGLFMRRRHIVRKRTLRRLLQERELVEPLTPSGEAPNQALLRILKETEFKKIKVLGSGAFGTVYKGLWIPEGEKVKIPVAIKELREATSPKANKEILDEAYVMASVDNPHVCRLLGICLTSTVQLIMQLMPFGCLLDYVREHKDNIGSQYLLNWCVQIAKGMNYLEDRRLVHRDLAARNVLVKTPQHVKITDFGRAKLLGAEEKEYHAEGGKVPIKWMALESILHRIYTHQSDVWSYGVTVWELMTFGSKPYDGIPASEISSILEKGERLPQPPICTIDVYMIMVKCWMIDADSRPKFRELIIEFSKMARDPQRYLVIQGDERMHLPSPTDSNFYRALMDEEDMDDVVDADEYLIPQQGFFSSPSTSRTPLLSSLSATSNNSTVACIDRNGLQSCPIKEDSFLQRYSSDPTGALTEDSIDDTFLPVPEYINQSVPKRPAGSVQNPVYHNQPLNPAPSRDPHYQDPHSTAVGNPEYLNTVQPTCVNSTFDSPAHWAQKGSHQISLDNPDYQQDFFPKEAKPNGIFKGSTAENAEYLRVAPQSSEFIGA
Sequence of Epidermal growth factor receptor (P00533 whole entry): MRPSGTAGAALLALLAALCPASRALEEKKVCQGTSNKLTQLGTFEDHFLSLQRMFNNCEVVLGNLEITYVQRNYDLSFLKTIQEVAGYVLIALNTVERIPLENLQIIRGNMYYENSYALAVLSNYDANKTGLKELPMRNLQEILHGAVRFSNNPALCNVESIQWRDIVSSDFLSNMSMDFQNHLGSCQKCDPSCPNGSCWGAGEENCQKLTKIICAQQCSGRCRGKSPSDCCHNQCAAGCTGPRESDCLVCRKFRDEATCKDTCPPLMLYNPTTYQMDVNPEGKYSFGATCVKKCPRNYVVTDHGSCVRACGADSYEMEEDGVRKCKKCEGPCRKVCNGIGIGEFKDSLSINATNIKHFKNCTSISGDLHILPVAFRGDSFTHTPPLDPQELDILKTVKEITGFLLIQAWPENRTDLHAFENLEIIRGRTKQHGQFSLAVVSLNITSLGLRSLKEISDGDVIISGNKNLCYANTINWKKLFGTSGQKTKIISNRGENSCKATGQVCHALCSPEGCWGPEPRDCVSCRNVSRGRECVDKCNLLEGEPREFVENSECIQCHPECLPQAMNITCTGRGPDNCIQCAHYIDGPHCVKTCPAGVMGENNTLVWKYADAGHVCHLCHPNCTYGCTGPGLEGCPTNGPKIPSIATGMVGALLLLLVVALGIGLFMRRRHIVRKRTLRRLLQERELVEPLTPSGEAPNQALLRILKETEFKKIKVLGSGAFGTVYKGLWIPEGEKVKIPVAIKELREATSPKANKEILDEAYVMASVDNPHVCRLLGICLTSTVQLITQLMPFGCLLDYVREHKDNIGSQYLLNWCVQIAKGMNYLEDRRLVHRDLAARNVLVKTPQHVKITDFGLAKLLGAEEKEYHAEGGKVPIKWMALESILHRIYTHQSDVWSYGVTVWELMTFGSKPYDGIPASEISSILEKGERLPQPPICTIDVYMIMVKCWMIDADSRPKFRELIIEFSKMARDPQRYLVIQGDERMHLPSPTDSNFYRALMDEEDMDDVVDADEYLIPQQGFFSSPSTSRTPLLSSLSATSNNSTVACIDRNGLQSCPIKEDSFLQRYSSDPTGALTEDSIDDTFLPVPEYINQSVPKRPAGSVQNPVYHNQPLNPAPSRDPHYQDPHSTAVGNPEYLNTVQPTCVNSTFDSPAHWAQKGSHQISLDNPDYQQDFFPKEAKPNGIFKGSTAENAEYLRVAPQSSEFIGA
Sequence of Epidermal growth factor receptor [L858R] (P00533 25-1210 L858R limits assumed): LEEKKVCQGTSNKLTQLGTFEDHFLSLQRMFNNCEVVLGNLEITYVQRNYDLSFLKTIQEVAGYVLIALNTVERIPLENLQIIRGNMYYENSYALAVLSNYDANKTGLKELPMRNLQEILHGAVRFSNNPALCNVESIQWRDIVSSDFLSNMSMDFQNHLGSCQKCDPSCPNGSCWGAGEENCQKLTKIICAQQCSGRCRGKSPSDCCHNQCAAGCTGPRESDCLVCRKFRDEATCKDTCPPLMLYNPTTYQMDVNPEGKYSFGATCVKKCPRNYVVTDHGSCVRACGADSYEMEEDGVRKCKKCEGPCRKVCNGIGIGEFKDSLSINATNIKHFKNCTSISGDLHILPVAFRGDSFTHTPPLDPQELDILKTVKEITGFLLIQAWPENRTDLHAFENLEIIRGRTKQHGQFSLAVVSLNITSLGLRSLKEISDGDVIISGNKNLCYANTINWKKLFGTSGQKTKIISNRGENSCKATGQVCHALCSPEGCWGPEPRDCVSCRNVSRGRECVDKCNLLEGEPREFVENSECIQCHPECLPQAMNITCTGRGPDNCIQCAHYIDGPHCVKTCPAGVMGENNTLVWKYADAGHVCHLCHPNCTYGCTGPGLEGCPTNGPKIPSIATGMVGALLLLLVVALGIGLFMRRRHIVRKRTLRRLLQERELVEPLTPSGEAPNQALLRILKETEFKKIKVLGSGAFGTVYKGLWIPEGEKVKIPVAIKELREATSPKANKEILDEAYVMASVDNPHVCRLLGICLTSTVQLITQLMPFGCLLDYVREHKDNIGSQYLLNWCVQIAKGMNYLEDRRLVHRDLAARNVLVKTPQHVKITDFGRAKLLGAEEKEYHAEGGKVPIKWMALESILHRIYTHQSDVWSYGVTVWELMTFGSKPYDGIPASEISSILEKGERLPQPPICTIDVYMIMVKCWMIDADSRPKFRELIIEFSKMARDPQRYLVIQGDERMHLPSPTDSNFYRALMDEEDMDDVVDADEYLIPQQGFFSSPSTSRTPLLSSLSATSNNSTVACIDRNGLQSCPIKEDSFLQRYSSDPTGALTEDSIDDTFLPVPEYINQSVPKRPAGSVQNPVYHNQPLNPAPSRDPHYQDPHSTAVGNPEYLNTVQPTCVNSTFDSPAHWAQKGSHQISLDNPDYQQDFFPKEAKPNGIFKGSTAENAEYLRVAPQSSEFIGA

Compound | IC50 [1] [nM] | IC50 [2] [nM] | IC50 [3] [nM] | IC50 [4] [nM] | IC50 [5] [nM] | IC50 [6] [nM] | IC50 [7] [nM] | IC50 [8] [nM]
Cc1c2c(nn1[C@H]1CCN(C)C[C@@H]1O)OCCCOc1c(cnn1C)-c1ccc3[nH]nc(c3c1)/C=C/2 (racemic) [US20250353864, Example 83] | 61.5 | 19 | 5.29 | 1.48 |  |  |  | 
CCOc1nn(CCO)c2c1/C=C/c1n[nH]c3ccc(cc13)-c1cnn(C)c1O[C@H](C)[C@H]1CCCN1C2 (single isomer, unassigned) [US20250353864, Example 241] | 0.4 |  | 0.28 |  |  |  |  | 
Cc1ccc2c(n1)/C=C/c1n[nH]c3ccc(cc13)-c1cnn(C)c1O[C@@H](C)CCO2 [US20250353864, Example 39] | 1070 | 222 | 35.3 |  |  |  |  | 
Cc1c2c(nn1CCN1CCCC1)OCCOC(C)c1c(cnn1C)-c1ccc3[nH]nc(c3c1)/C=C/2 (stereo not given) [US20250353864, Example 84] | 1080 | 285 | 28.2 | 30.8 |  |  |  | 
CCOc1nn(CCO)c2c1/C=C/c1n[nH]c3ccc(cc13)-c1cnn(C)c1OC1CCCN(C2)C1C (stereo not given) [US20250353864, Example 242] | 381 | 124 | 4.93 | 9.27 |  |  |  | 

Continued, values first:

IC50 [1] [nM] | IC50 [2] [nM] | IC50 [3] [nM] | IC50 [4] [nM] | IC50 [5] [nM] | IC50 [6] [nM] | IC50 [7] [nM] | IC50 [8] [nM] | Compound
413 | 132 | 28.5 | 10.8 |  |  |  |  | Cc1nn(C)c2c1/C=C/c1n[nH]c3ccc(cc13)-c1cnn(C)c1CN(C)C[C@H](C)O2 (single isomer, unassigned) [US20250353864, Example 97]
973 | 181 | 42.2 |  |  |  |  |  | CCc1nn(C)c2c1/C=C/c1n[nH]c3ccc(cc13)-c1cnn(C)c1OCCCO2 [US20250353864, Example 10]
 | 822 | 170 | 79.3 | 1000 | 2.7 | 9.92 | 48.3 | Cc1nn(C)c2c1/C=C/c1n[nH]c3ccc(cc13)-c1c(C)nn(C)c1OCCN(C)C2 [US20250353864, Example 47]
64 | 4.66 | 0.45 | 0.06 |  |  |  |  | Cc1c2c(nn1CCN1CCCC1)CN(C)C[C@H](C)Oc1c(cnn1C)-c1ccc3[nH]nc(c3c1)/C=C/2 [US20250353864, Example 89]

— BindingDB's records for patent US20250353864 (Blossomhill Therapeutics, 2025)
